# ChEMBL document CHEMBL3885861, “Open TG-GATES”
# Species: Rattus norvegicus
# Experiment: Open TG-GATES - Regimen: Daily Repeat
# Format: toxicity, organism-based, Sprague-Dawley
# Design: regimen Daily Repeat, gender Male, age 6 weeks
# Conditions: in vivo, po, 100 mg/kg, route gavage, dose level Low; for APTT / Bas / Eos / Fbg / Hb / Ht / Lym / MCH / MCHC / MCV / Mono / Neu / PT / Plat / RBC / Ret / WBC: tissue Blood; for KIDNEY_L / KIDNEY_R / KIDNEY_TOTAL: tissue Kidney; for LIVER: tissue Liver; for A/G / ALP / ALT / AST / BUN / CRE / Ca / Cl / DBIL / GLC / IP / K / LDH / Na / PL / RALB / TBIL / TC / TG / TP / gamma-GTP: tissue Plasma
smiles,measurement,setting,value
COc1ccc(Cl)cc1C(=O)NCCc1ccc(S(=O)(=O)NC(=O)NC2CCCCC2)cc1 [GLYBURIDE],TERMINAL_BW,"72 h, time 3 day",227.4 g
same,APTT,"72 h, time 3 day",20.1 s
same,Bas,"72 h, time 3 day",0%
same,Eos,"72 h, time 3 day",1%
same,Fbg,"72 h, time 3 day",222.4 mg/dL
same,Hb,"72 h, time 3 day",13.6 g/dL
same,Ht,"72 h, time 3 day",40.3%
same,Lym,"72 h, time 3 day",83%
same,MCH,"72 h, time 3 day",21.4 pg
same,MCHC,"72 h, time 3 day",33.6%
same,MCV,"72 h, time 3 day",63.7 fL
same,Mono,"72 h, time 3 day",2.6%
same,Neu,"72 h, time 3 day",12.8%
same,PT,"72 h, time 3 day",12.2 s
same,Plat,"72 h, time 3 day",115.5 x10_4/uL
same,RBC,"72 h, time 3 day",632.6 x10_4/ul
same,Ret,"72 h, time 3 day",5.2%
same,WBC,"72 h, time 3 day",104.4 x10_2/uL
same,KIDNEY_L,"72 h, time 3 day",1 g
same,KIDNEY_R,"72 h, time 3 day",1 g
same,KIDNEY_TOTAL,"72 h, time 3 day",1.9 g
same,LIVER,"72 h, time 3 day",10.6 g
same,A/G,"72 h, time 3 day",1.7
same,ALP,"72 h, time 3 day",952 IU/L
same,ALT,"72 h, time 3 day",42 IU/L
same,AST,"72 h, time 3 day",65.4 IU/L
same,BUN,"72 h, time 3 day",15 mg/dL
same,CRE,"72 h, time 3 day",0.4 mg/dL
same,Ca,"72 h, time 3 day",10.9 mg/dL
same,Cl,"72 h, time 3 day",103 meq/L
same,DBIL,"72 h, time 3 day",0.1 mg/dL
same,GLC,"72 h, time 3 day",187.8 mg/dL
same,IP,"72 h, time 3 day",6.9 mg/dL
same,K,"72 h, time 3 day",3.8 meq/L
same,LDH,"72 h, time 3 day",183.6 IU/L
same,Na,"72 h, time 3 day",141.6 meq/L
same,PL,"72 h, time 3 day",153.8 mg/dL
same,RALB,"72 h, time 3 day",3.5 g/dL
same,TBIL,"72 h, time 3 day",0.1 mg/dL
same,TC,"72 h, time 3 day",75.4 mg/dL
same,TG,"72 h, time 3 day",113 mg/dL
same,TP,"72 h, time 3 day",5.6 g/dL
same,gamma-GTP,"72 h, time 3 day",1.4 IU/L
same,TERMINAL_BW,"[…], time 7 day",265.1 g
same,TERMINAL_BW,"[…], time 14 day",301.6 g
same,TERMINAL_BW,"[…], time 28 day",376.3 g
same,APTT,"[…], time 7 day",19.7 s
same,Bas,"[…], time 7 day",0.2%
same,Eos,"[…], time 7 day",0.8%
same,Fbg,"[…], time 7 day",223 mg/dL
same,Hb,"[…], time 7 day",13 g/dL
same,Ht,"[…], time 7 day",38.5%
same,Lym,"[…], time 7 day",79.4%
same,MCH,"[…], time 7 day",21 pg
same,MCHC,"[…], time 7 day",33.7%
same,MCV,"[…], time 7 day",62.3 fL
same,Mono,"[…], time 7 day",3%
same,Neu,"[…], time 7 day",16.4%
same,PT,"[…], time 7 day",12.5 s
same,Plat,"[…], time 7 day",124.6 x10_4/uL
same,RBC,"[…], time 7 day",618 x10_4/ul
same,Ret,"[…], time 7 day",5.6%
same,WBC,"[…], time 7 day",123.7 x10_2/uL
same,APTT,"[…], time 14 day",19.3 s
same,Bas,"[…], time 14 day",0%
same,Eos,"[…], time 14 day",1%
same,Fbg,"[…], time 14 day",224.6 mg/dL
same,Hb,"[…], time 14 day",14.3 g/dL
same,Ht,"[…], time 14 day",40.2%
same,Lym,"[…], time 14 day",78%
same,MCH,"[…], time 14 day",21 pg
same,MCHC,"[…], time 14 day",35.6%
same,MCV,"[…], time 14 day",59.2 fL
same,Mono,"[…], time 14 day",2.2%
same,Neu,"[…], time 14 day",17.8%
same,PT,"[…], time 14 day",12.3 s
same,Plat,"[…], time 14 day",122 x10_4/uL
same,RBC,"[…], time 14 day",679.6 x10_4/ul
same,Ret,"[…], time 14 day",3.9%
same,WBC,"[…], time 14 day",137.4 x10_2/uL
same,APTT,"[…], time 28 day",23 s
same,Bas,"[…], time 28 day",0%
same,Eos,"[…], time 28 day",0.8%
same,Fbg,"[…], time 28 day",207.8 mg/dL
same,Hb,"[…], time 28 day",15.2 g/dL
same,Ht,"[…], time 28 day",43.5%
same,Lym,"[…], time 28 day",82.6%
same,MCH,"[…], time 28 day",19.3 pg
same,MCHC,"[…], time 28 day",34.9%
same,MCV,"[…], time 28 day",55.4 fL
same,Mono,"[…], time 28 day",2.4%
same,Neu,"[…], time 28 day",13.4%
same,PT,"[…], time 28 day",12.7 s
same,Plat,"[…], time 28 day",105.5 x10_4/uL
same,RBC,"[…], time 28 day",786.4 x10_4/ul
same,Ret,"[…], time 28 day",2.6%
same,WBC,"[…], time 28 day",115.6 x10_2/uL
same,KIDNEY_L,"[…], time 7 day",1.1 g
same,KIDNEY_R,"[…], time 7 day",1.1 g
same,KIDNEY_TOTAL,"[…], time 7 day",2.2 g
same,KIDNEY_L,"[…], time 14 day",1.1 g
same,KIDNEY_R,"[…], time 14 day",1.2 g
same,KIDNEY_TOTAL,"[…], time 14 day",2.3 g
same,KIDNEY_L,"[…], time 28 day",1.3 g
same,KIDNEY_R,"[…], time 28 day",1.3 g
same,KIDNEY_TOTAL,"[…], time 28 day",2.6 g
same,LIVER,"[…], time 7 day",12.7 g
same,LIVER,"[…], time 14 day",13 g
same,LIVER,"[…], time 28 day",15.8 g
same,A/G,"[…], time 7 day",1.5
same,ALP,"[…], time 7 day",816.2 IU/L
same,ALT,"[…], time 7 day",35.2 IU/L
same,AST,"[…], time 7 day",60.2 IU/L
same,BUN,"[…], time 7 day",15.8 mg/dL
same,CRE,"[…], time 7 day",0.4 mg/dL
same,Ca,"[…], time 7 day",11 mg/dL
same,Cl,"[…], time 7 day",102.4 meq/L
same,DBIL,"[…], time 7 day",0.1 mg/dL
same,GLC,"[…], time 7 day",196 mg/dL
same,IP,"[…], time 7 day",7.3 mg/dL
same,K,"[…], time 7 day",4.1 meq/L
same,LDH,"[…], time 7 day",155.2 IU/L
same,Na,"[…], time 7 day",140.6 meq/L
same,PL,"[…], time 7 day",151.8 mg/dL
same,RALB,"[…], time 7 day",3.4 g/dL
same,TBIL,"[…], time 7 day",0.2 mg/dL
same,TC,"[…], time 7 day",78.4 mg/dL
same,TG,"[…], time 7 day",116.4 mg/dL
same,TP,"[…], time 7 day",5.7 g/dL
same,gamma-GTP,"[…], time 7 day",1.2 IU/L
same,A/G,"[…], time 14 day",1.4
same,ALP,"[…], time 14 day",1042 IU/L
same,ALT,"[…], time 14 day",37 IU/L
same,AST,"[…], time 14 day",63.6 IU/L
same,BUN,"[…], time 14 day",15.2 mg/dL
same,CRE,"[…], time 14 day",0.5 mg/dL
same,Ca,"[…], time 14 day",10.7 mg/dL
same,Cl,"[…], time 14 day",102.2 meq/L
same,DBIL,"[…], time 14 day",0.1 mg/dL
same,GLC,"[…], time 14 day",193.2 mg/dL
same,IP,"[…], time 14 day",6.4 mg/dL
same,K,"[…], time 14 day",3.9 meq/L
same,LDH,"[…], time 14 day",138.2 IU/L
same,Na,"[…], time 14 day",140.2 meq/L
same,PL,"[…], time 14 day",166.4 mg/dL
same,RALB,"[…], time 14 day",3.5 g/dL
same,TBIL,"[…], time 14 day",0.2 mg/dL
same,TC,"[…], time 14 day",81.2 mg/dL
same,TG,"[…], time 14 day",116.8 mg/dL
same,TP,"[…], time 14 day",6 g/dL
same,gamma-GTP,"[…], time 14 day",0.6 IU/L
same,A/G,"[…], time 28 day",1.4
same,ALP,"[…], time 28 day",594 IU/L
same,ALT,"[…], time 28 day",33.6 IU/L
same,AST,"[…], time 28 day",58.4 IU/L
same,BUN,"[…], time 28 day",14.6 mg/dL
same,CRE,"[…], time 28 day",0.5 mg/dL
same,Ca,"[…], time 28 day",10.4 mg/dL
same,Cl,"[…], time 28 day",103.6 meq/L
same,DBIL,"[…], time 28 day",0.09 mg/dL
same,GLC,"[…], time 28 day",213.6 mg/dL
same,IP,"[…], time 28 day",6.4 mg/dL
same,K,"[…], time 28 day",3.9 meq/L
same,LDH,"[…], time 28 day",147 IU/L
same,Na,"[…], time 28 day",141 meq/L
same,PL,"[…], time 28 day",137.4 mg/dL
same,RALB,"[…], time 28 day",3.4 g/dL
same,TBIL,"[…], time 28 day",0.2 mg/dL
same,TC,"[…], time 28 day",69 mg/dL
same,TG,"[…], time 28 day",98.8 mg/dL
same,TP,"[…], time 28 day",5.8 g/dL
same,gamma-GTP,"[…], time 28 day",1.4 IU/L
